Assay results reported in the supplement of paper PMC10307832.

Tests used:
Test in all cases: relative viability (nuclei count vs DMSO), 5 days (fraction); higher = more cells survive
[1] = compound: C[C@H]([C@@H](C(=O)N)NC(=O)[C@@H]1CSSC[C@@H](C(=O)N[C@H](C(=O)N[C@@H](C(=O)N[C@H](C(=O)N1)CCCCN)CC2=CNC3=CC=CC=C32)CC4=CC=C(C=C4)O)NC(=O)[C@@H](CC5=CC=CC=C5)N)O [CAP-232] + CC1(C)CCC(c2ccc(Cl)cc2)=C(CN2CCN(c3ccc(C(=O)NS(=O)(=O)c4ccc(N[C@H](CCN5CCOCC5)CSc5ccccc5)c(S(=O)(=O)C(F)(F)F)c4)cc3)CC2)C1 [Navitoclax] (partner 0.5 µM)
Outline: (§1)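 Relative viability is defined as nuclei in treated wells over nuclei in vehicle wells. Duplicate plates were run and medians reported. Lung cancer cell lines in 1536-well plates were dosed by pin tool one day after seeding, with one drug or with a fixed anchor-drug dose plus five library-drug doses (not always all listed) in √10 steps, and nuclei were counted after 5 days.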

[2] = compound: C[C@H]([C@@H](C(=O)N)NC(=O)[C@@H]1CSSC[C@@H](C(=O)N[C@H](C(=O)N[C@@H](C(=O)N[C@H](C(=O)N1)CCCCN)CC2=CNC3=CC=CC=C32)CC4=CC=C(C=C4)O)NC(=O)[C@@H](CC5=CC=CC=C5)N)O [CAP-232] + COc1cc2c(Oc3ccc(NC(=O)C4(C(=O)Nc5ccc(F)cc5)CC4)cc3F)ccnc2cc1OCCCN1CCOCC1 [Foretinib] (partner 0.25 µM)
Outline: as §1

[3] = compound: C[C@H]([C@@H](C(=O)N)NC(=O)[C@@H]1CSSC[C@@H](C(=O)N[C@H](C(=O)N[C@@H](C(=O)N[C@H](C(=O)N1)CCCCN)CC2=CNC3=CC=CC=C32)CC4=CC=C(C=C4)O)NC(=O)[C@@H](CC5=CC=CC=C5)N)O [CAP-232] + Cc1cc(Nc2cc(N3CCN(C)CC3)nc(Sc3ccc(NC(=O)C4CC4)cc3)n2)n[nH]1 [Tozasertib] (partner 0.1 µM)
Outline: as §1

[4] = compound: C[C@H]([C@@H](C(=O)N)NC(=O)[C@@H]1CSSC[C@@H](C(=O)N[C@H](C(=O)N[C@@H](C(=O)N[C@H](C(=O)N1)CCCCN)CC2=CNC3=CC=CC=C32)CC4=CC=C(C=C4)O)NC(=O)[C@@H](CC5=CC=CC=C5)N)O [CAP-232] + Cc1nc(Nc2ncc(C(=O)Nc3c(C)cccc3Cl)s2)cc(N2CCN(CCO)CC2)n1 [Dasatinib] (partner 0.075 µM)
Outline: as §1

[5] = compound: C[C@H]([C@@H](C(=O)N)NC(=O)[C@@H]1CSSC[C@@H](C(=O)N[C@H](C(=O)N[C@@H](C(=O)N[C@H](C(=O)N1)CCCCN)CC2=CNC3=CC=CC=C32)CC4=CC=C(C=C4)O)NC(=O)[C@@H](CC5=CC=CC=C5)N)O [CAP-232] + Nc1ncn([C@H]2C[C@H](O)[C@@H](CO)O2)c(=O)n1 [Decitabine] (partner 2 µM)
Outline: as §1

| Cell Line | relative viability ([1]; first compound 0.4 µM) | relative viability ([1]; first compound 1.265 µM) | relative viability ([1]; first compound 4 µM) | relative viability ([1]; first compound 12.65 µM) | relative viability ([2]; first compound 0.4 µM) | relative viability ([2]; first compound 1.265 µM) | relative viability ([2]; first compound 4 µM) | relative viability ([2]; first compound 12.65 µM) | relative viability ([3]; first compound 0.4 µM) | relative viability ([3]; first compound 1.265 µM) | relative viability ([3]; first compound 4 µM) | relative viability ([3]; first compound 12.65 µM) | relative viability ([4]; first compound 0.4 µM) | relative viability ([4]; first compound 1.265 µM) | relative viability ([4]; first compound 4 µM) | relative viability ([4]; first compound 12.65 µM) | relative viability ([5]; first compound 0.4 µM) | relative viability ([5]; first compound 1.265 µM) | relative viability ([5]; first compound 4 µM) | relative viability ([5]; first compound 12.65 µM) |
| --- | --- | --- | --- | --- | --- | --- | --- | --- | --- | --- | --- | --- | --- | --- | --- | --- | --- | --- | --- | --- |
| NCI-H1355 | 0.96 | 0.921 | 1.14 | 0.966 | 1.07 | 1.04 | 0.945 | 0.908 | 0.638 | 0.586 | 0.557 | 0.655 | 0.847 | 0.736 | 0.618 | 0.5 | 0.339 | 0.33 | 0.391 | 0.338 |
| NCI-H1395 | 1.14 | 1 | 1.07 | 0.927 | 0.971 | 0.997 | 0.854 | 1.11 | 0.677 | 0.793 | 0.765 | 0.79 | 0.413 | 0.445 | 0.426 | 0.388 | 0.777 | – | 0.745 | 0.537 |
| NCI-H1437 | 1.12 | 1.07 | 1.15 | 0.862 | 1.26 | 1.27 | 1.34 | 1.2 | 0.412 | 0.403 | 0.461 | 0.466 | 0.547 | 0.343 | 0.358 | 0.416 | 0.559 | 0.535 | 0.624 | 0.523 |
| NCI-H1650 | 1.34 | 1.08 | 1.36 | 0.478 | 1.07 | 1.11 | 1.25 | 0.542 | 0.427 | 0.38 | 0.391 | 0.213 | 0.344 | 0.27 | 0.282 | 0.231 | 0.404 | 0.423 | 0.554 | 0.192 |
| NCI-H1651 | 1.02 | 0.969 | 1.08 | 0.535 | 0.709 | 0.913 | 0.843 | 0.485 | 0.665 | 0.681 | 0.732 | 0.625 | 0.357 | 0.395 | 0.465 | 0.33 | 0.681 | 0.579 | 0.707 | 0.683 |
| NCI-H1666 | 0.89 | – | 1.08 | 0.931 | 0.946 | 0.989 | 0.892 | 0.821 | 0.631 | 0.574 | 0.673 | 0.345 | 0.904 | 0.757 | 0.893 | 0.678 | 0.711 | 0.735 | 0.814 | 0.796 |
| NCI-H1734 | 0.778 | 0.849 | 0.889 | 0.767 | 0.883 | 0.863 | 0.971 | 0.697 | 0.248 | 0.272 | 0.266 | 0.197 | 0.45 | 0.459 | 0.461 | 0.446 | 0.484 | 0.511 | 0.516 | 0.397 |
